The results in this text go back to patent US10130590B2, “Methods of treating cancer with atovaquone-related compounds” (DANA-FARBER CANCER INSTITUTE, INC., priority 2013, dated 2018).

What all share (type): cell-based
The test system of one assay is mTOR pathway. Put plainly: Western blot of mTOR pathway markers (S6, S6K, 4E-BP1). The procedure:
(§1) Western blotting was performed as previously described (Battle T E, Arbiser J, & Frank D A (2005) The natural product honokiol induces caspase dependent apoptosis in B-cell chronic lymphocytic leukemia (B-CLL) cells. Blood 106(2):690-697). Antibodies to phospho-MAPK (9101), total MAPK (9102), phospho-Y705 STAT3 (9131), phospho-S6 (2215), total S6 (2217), phospho-4E-BP1 (9451), total 4E-BP1 (9644), total RSK (9355), phospho-S6K (9234, 85 used at 1:5000), total S6K (2708), phospho-eIF2α (9721, used at 1:1000), total eIF2α (5324), ATF4 (11815, used at 1:1000), PDGFRβ (3169), IGF1Rβ (9750), EGFR (2232), and HER2 (2242) were from Cell Signaling Technology. Phospho-RSK antibody was from R&D (AF889). Antibodies to total STAT3 (sc-482) and gp130 (sc-656, used at 1:1000) were from Santa Cruz Biotechnology. Phospho-S727 STAT3 antibody was described previously (229). REDD1 antibody was from Proteintech (10638-1-AP, used at 1:1000). Antibody recognizing full-length and cleaved ATF6 was from Abcam (ab122897, used at 1:1000). Antibodies to tubulin (T5168) and beta actin (A5316) were from Sigma. All antibodies were used at 1:10000 dilution for western blot unless otherwise noted. For immunoprecipitations, cells were lysed in 500 μl lysis buffer (0.5% NP-40, 150 mM NaCl, 50 mM Tris pH 7.5, with protease and phosphatase inhibitors freshly added at 1:100 [Pierce, PI78443]) on ice for 15 minutes, then centrifuged for 10 minutes at 14,000 RPM and 4° C. The supernatant was transferred to a new tube and incubated with 10 μl JAK2 antibody (Santa Cruz sc-278) or a mix of two TYK2 antibodies, 10 μl of each (Santa Cruz sc-5271 and Cell Signaling Technology 9312). Immunoprecipitation was performed overnight at 4° C. with rotation. The next day, 75 μl of protein A/G beads (Santa Cruz sc-2003) were washed twice in lysis buffer, then incubated with immunoprecipitates overnight as before. The next day, the beads were spun down (1 min. at 7,500 RPM and 4° C.) and washed 3 times with 650 μl lysis buffer for 10 minutes at 4° C. with rotation, then boiled in 50 μl sample buffer+10% β-mercaptoethanol. For Western blot, 20 μl were loaded per lane. For detection of phospho-tyrosine, a mixture of two pan-phospho-tyrosine antibodies (Cell Signaling Technology 9411 and 9416, 1:1000 of each) was used. Antibody to phospho-Y1007/1008 JAK2 was from Cell Signaling 86 Technology (3771, used at 1:1000). Antibody to phospho-Y570 JAK2 was from Millipore (09-241, used at 1:1000). Luminometric Assays Luciferase reporter cell lines were described previously (186). Firefly luciferase values were normalized by concurrent cell viability. Cell viability was measured as ATP-dependent luminescence by Cell Titer Glo (Promega).
K562 cells were treated with atovaquone (20 μM) or rapamycin (10 nM) for 1 hour or 5 hours, then analyzed by Western blot. […] The requirement for prolonged treatment to observe mTOR inhibition raised the possibility that this effect was mediated by an induced factor. To test this hypothesis, cells were pretreated with cycloheximide, a protein synthesis inhibitor. K562 cells were pre-treated with vehicle or cycloheximide (2 μg/ml) for 1 hour, then treated with vehicle or atovaquone (20 μM) for 5 hours. […] Similar results were obtained with actinomycin D, an inhibitor of mRNA synthesis.
To evaluate the role of REDD1, RNA interference was used to knock down its expression in adherent SKBR3 cells, given the relative ease of introducing siRNA into these cells. SKBR3 cells were transfected with control or REDD1 siRNA for 48 hours, then treated with atovaquone (25 μM) for 4 hours.
Next, U266 cells were treated with 12.5 or 25 μM buparvaquone or 1, 5, or 25 μM 2-(4-(trans-decahydronaphth-2-yl)butyl)-3-hydroxy-1,4-naphthoquinone (Sigma analog), or DMSO vehicle control, for 2.5 hours, after which cells were harvested and immunoblots were performed with antibodies for total and phospho STAT3 and total and phospho S6.
A general note: In western blotting, separated proteins are transferred to a membrane and probed.

Another assay has as its system HEL cells. Put plainly: PI cell cycle analysis, HEL. The note with it: 25 μM, 24 hours. As to the method:
Annexin V/PI staining was performed using Annexin V:FITC Apoptosis Detection Kit I (BD Biosciences). Staining for cell cycle analysis was performed as previously described (267). Staining for cell-surface receptors was performed in 50 μl PBS+2% FBS with 2 μl antibody to IL6R (BioLegend #352803) or 5 μl antibody to gp130 (BD Biosciences #555757) for 20 minutes on ice in the dark. Cells were washed twice, then resuspended in 300 μl of the same buffer. Samples were analyzed on a BD FACSCanto II machine. Transfection and siRNA Cells were reverse-transfected using Lipofectamine RNAiMAX (Invitrogen); the culture medium was changed 24 hours later. Control siRNA (D-001210-02) and REDD1 siRNA (M-010855-01) were from Thermo Scientific Dharmacon. Additionally, it was hypothesized atovaquone inhibits proliferation by disrupting cell cycle progression. […] In summary, atovaquone inhibits constitutive STAT3 activation and target gene expression in cancer cells, and reduces their survival and proliferation.

In another assay the test system is eIF2α/ATF4 pathway. Put plainly: Western blot / qRT-PCR of phospho-eIF2α/ATF4 pathway. As to the method:
as §1
In asking how atovaquone induces REDD1, a possible role for ATF4, which regulates REDD1 expression was considered. ATF4 is regulated mainly at the level of translation and is induced upon phosphorylation of eIF2α. […] K562 and AML2 cells, which lack STAT3 activation, were treated with rapamycin for 72 hours. […] For these reasons, it was hypothesized that atovaquone induces eIF2α phosphorylation, with a resulting increase in ATF4 protein and signaling. U266, K562, and SKBR3 cells were treated with atovaquone (20, 20, 25 μM respectively). […] The phospho-eIF2α/ATF4 pathway represents one branch of the UPR, whose other branches consist of ATF6 cleavage and IRE1-mediated XBP1 splicing. […] Thus, atovaquone selectively activates the phospho-eIF2α/ATF4 branch of the UPR. […]

The mark [1] stands for this setting: K562, 20 μM, only after 5 hours, efficacy comparable to rapamycin.
The mark [2] stands for this setting: U266, K562, SKBR3, 20, 20, 25 μM.

As for `O=C1C(O)=C([C@H]2CC[C@H](c3ccc(Cl)cc3)CC2)C(=O)c2ccccc21` [atovaquone, trans-2-[4-(4-chlorophenyl)cyclohexyl]-3-hydroxy-1,4-naphthalenedione], in the assay with mTOR pathway (setting [1]), the “phosphorylation of 4E-BP1” value is recorded as “inhibited phosphorylation of 4E-BP1” and the “phosphorylation of ribosomal protein S6” value is “inhibited phosphorylation”. Moreover, the “phosphorylation of p70S6K” value in the assay with mTOR pathway (K562, 6 hours) is given as “inhibited phosphorylation of p70S6K”. Moreover, the “inhibition of S6 phosphorylation after cycloheximide pre-treatment” value in the assay with mTOR pathway (K562 and U266, cycloheximide 2 μg/ml 1 hour) is recorded as “blocked in the presence of cycloheximide”. In addition, the “inhibition of S6 phosphorylation after REDD1 knock down” value in the assay with mTOR pathway (SKBR3, REDD1 siRNA 48 hours, 25 μM 4 hours) is given as “largely blocked”. In the assay on HEL cells, the “population of cells in G2/M” value is on record as “decreased the population of cells in G2/M” and the “proportion of cells with lower DNA content” value is recorded as “increased the proportion of cells with lower DNA content”. Also, in the assay on eIF2α/ATF4 pathway, the CHAC1 expression result was “consistently upregulated” and the CHOP expression entry is “strongly upregulates CHOP”. Further, the “expression of ATF4 mRNA” value in the assay on eIF2α/ATF4 pathway (U266, 15 μM, 2 hours) is reported as “unchanged”. For the same compound, in the assay with eIF2α/ATF4 pathway (setting [2]), the ATF4 protein levels result is recorded as “increased ATF4 protein levels” and the eIF2α phosphorylation entry was “induced eIF2α phosphorylation”.
